Where two headings read alike, the source gives them in different places.
How the values were obtained:
hippocampal astrocytes [1] = assay: Intracellular glutamate content [Glu]i of astrocytes; format: cell-based, rat; settings: 70 minutes incubation with 500 μM
Description: For experiments in which [Glu]o concentrations were assessed by the bioluminescence method, cells were maintained in glutamate-depleted medium in the presence or absence of the agonists/antagonist combination of interest. […] After the incubation period, the stimulation media (containing drugs of interest) were aspirated and cells were washed twice with MEM and allowed to remain for 30 to 60 minutes in drug free MEM supplemented with 20 mM glucose prior to taking media samples for glutamate measurements. To assess acute drug effects, untreated cells were washed and the reagent of interest applied in glucose supplemented MEM. Cells were harvested in 0.3 N NaOH and neutralized with 0.3 N HCl. Aliquots were stored in -20° C. for protein and [Glu]i determination. Glutamate standards used for calibration were prepared in MEM (For [Glu]i in 0.15 N NaCl).

hippocampal astrocytes [2] = assay: Extracellular glutamate [Glu]o released by astrocyte cultures (bioluminescence); format: cell-based, rat; settings: for order of potency in mimicking ACPD effect on glutamate release: FIG. 7B; for effect on [Glu]o / glutamate release: cells treated for 24 hours, then MEM; for antagonism of ACPD effects on [Glu]o: applied simultaneously with ACPD; for antagonism of the effect of L-CCG-I on [Glu]o: data not shown; for effect on [Glu]o when Na+ gradient is disrupted: 1.0 mM Ouabain, 1.0/5.0 mM L-AA, 30 minute treatment
hippocampal astrocytes [3] = assay: 3H-D-aspartate (glutamate/aspartate) uptake in astrocytes; format: cell-based, rat; settings: for effect on aspartate uptake: KA or NMDA 1 mM, 24 hours
Description: Uptake procedures were essentially identical to those previously described (Kimelberg et al. 1989; Ye et al., 1996). Briefly, 5-10 minutes before assessing uptake, astrocytes were washed and kept in a solution containing (in mM): NaCl 122, KCl 3, MgSO4 0.4, KH2 PO4 1.2, NaHCO3 25, D-glucose 10, and CaCl2 1.3, at 37° C., bubbled with 5%/95% CO2 /O2. Then the cells were switched to the above solution supplemented with 0.1 mM D-aspartate and 0.4 μCi/ml ^3 H-D-aspartate. Glutamate/aspartate uptake was determined over a 10 or 30 minutes period and was terminated by three quick washes, twice with ice cold 0.29 M sucrose solution with 10 mM Tris Nitrate, 0.5 mM Ca(NO3)2, (pH 7.40 by NaOH) and then with ice cold PBS. Cells were then harvested after a 30 minute incubation in 0.3 N NaOH solution (37° C.) and ^3 H activity was determined in a liquid scintillation counter (Beckman). Total uptake was normalized to protein content to eliminate variability due to cell number. Protein levels were determined using the bicinchoninic acid (BCA) assay (Pierce; Rockford, Ill.).

glial cells = assay: Glial glutamate uptake and extracellular glutamate with MPTP/MPP+ and t-ACPD; format: cell-based; settings: for elevations of extracellular glutamate levels: glial cells
Description: The normally low glutamate levels in the brain are established and maintained in glial cells by non-vesicular uptake of glutamate through a Na^+ -dependent transporter (FIG. 14). Once taken up, glutamate can be converted to glutamine and recycled for neurotransmitter synthesis in neurons (FIG. 14). If glial cells in culture are exposed to high glutamate concentrations (e.g., 100 μM), they will remove it from the extracellular space and essentially "detoxify" the neuronal environment. […] Under those conditions, extracellular glutamate levels are elevated to 7 μM (FIG. 16), which is toxic to most surrounding neurons.
Impaired glial glutamate transport may contribute to the loss of dopaminergic neurons in Parkinson's disease. Thus, stimulation of this pathway would be neuroprotective. A drug and its receptor on glial cells was identified that allows enhanced glutamate detoxification. Specifically, trans-ACPD (trans-1-amino-1,3-cyclopentane dicarboxylic acid) (t-ACPD), a group II metabotropic glutamate receptor agonist, enhanced glial glutamate uptake (FIG. 17). It's actions were 2-fold; (i) it enhanced glutamate uptake by up to 80%, and (ii) it decreased non-specific release of glutamate, effectively trapping glutamate inside glial cells. In fact, the release of glutamate decreased to such a large extent that it almost made the transporter rectify, e.g. allowing only influx and preventing outflow of glutamate (FIG. 18). […] Using antibodies and further pharmacological studies, the receptor that is responsible for these effects has been identified as mGluR2/3.
In Parkinson's disease, it is believed that neurons may die of excitotoxic exposure to glutamate. The present invention determined that MPTP directly effects glutamate uptake into astrocytes (FIG. 21, top left). […] This increased release may be sufficient to explain some of the subsequent neurodegeneration.

dopaminergic neurons = assay: Cell death of dopaminergic neurons induced by glutamate or MPTP; format: cell-based, rat; settings: 0.2 mM
Description: Cell death of dopaminergic neurons induced by glutamate, and the role of glial glutamate transport in protection of cell death at the cellular level were studied as it relates to Parkinson's disease. […] Thus, glutamate concentrations as low as 3-5 μM induced rapid cell death (FIGS. 11 and 12). Glutamate concentrations were also measured in the normal brain. They are typically around 1 μM, below the toxic level for dopaminergic neurons. […] This late onset of glutamate toxicity is compatible with the late onset of Parkinson's disease.

[4] = co-incubation, Forskolin 10 μM, Db-cAMP 0.2 mM

Compound: O=C(O)[C@@H]1CN[C@@H](C(=O)O)C1 (relative stereo) [PDC, 1-trans-pyrrolidine-2,4,-dicarboxylate]
- cellular glutamate content (hippocampal astrocytes [1]): 102.9±12.1 % of control

Compound: N[C@H](C(=O)O)[C@H](O)C(=O)O (relative stereo) [THA, DL-threo-β-hydroxyaspartate]
- glutamate release induced by transportable uptake inhibitor (hippocampal astrocytes [2]; 5-2000 μM in glutamate free MEM, 25 and 70 minutes): increased glutamate release from astrocytes in a dose- and time-dependent manner
- minimal effective concentration (hippocampal astrocytes [2]; Rattus norvegicus, Astrocyte, glutamate free MEM, read-out: concentration giving significant increases in glutamate release): > 100 µM
- activity at 500 µM (hippocampal astrocytes [1]; Rattus norvegicus, Astrocyte, 70 min, read-out: cellular glutamate content): 110 ± 14.7%

Compound: N[C@@]1(C(=O)O)CC[C@H](C(=O)O)C1 [1S3S-ACPD, (1S,3S)-1-aminocyclopentane-1,3-dicarboxylic acid]
- order of potency in mimicking ACPD effect on glutamate release (hippocampal astrocytes [2]): S-4CPG>1S3R-ACPD>L-CCG-I>1S3S-ACPD=QA
- effect on [Glu]o / glutamate release (hippocampal astrocytes [2]): reduce [Glu]o in a dose-dependent manner

Compound: N[C@@]1(C(=O)O)CC[C@@H](C(=O)O)C1 [ACPD]
- persistence of effects (FIG. 6 Off curve) (hippocampal astrocytes [2]): over 10 hours
- preincubation time for maximal effect (FIG. 6 On curve) (hippocampal astrocytes [2]): > 6 h
- effect remaining after washout (hippocampal astrocytes [2]; 10 hours after ACPD had been washed off): 50%
- time for effect to return to control levels after washout (hippocampal astrocytes [2]; 24 hours treatment, then ACPD free glutamate-depleted medium): about 20 hours
- reduction in the steady-state [Glu]o (hippocampal astrocytes [2]; astrocytes cultured from animals >P10, on average): ≈ 5 fold
- reduction in the steady-state [Glu]o (hippocampal astrocytes [2]; astrocytes cultured from younger animals): 30-50%
- ACPD modulation of [Glu]o under disrupted Na+ gradient (hippocampal astrocytes [2]; low Na+/high K+, Ouabain or L-AA): failed to modulate [Glu]o
- dose required for enhancement of uptake (hippocampal astrocytes [3]): ≈ 500 μM
- acute effect on uptake (hippocampal astrocytes [3]; acute application of up to 3 hours): ineffective in enhancing uptake
- enhancement of uptake (hippocampal astrocytes [3]; astrocytes from animals >P9, n=11): 35.2%±3.8%
- enhancement of uptake (hippocampal astrocytes [3]; astrocytes from neonatal rat pups, n=14): 24.5%±2.4%
- enhancement of uptake by region (hippocampal astrocytes [3]; hippocampal and spinal cord astrocytes): significant enhancement of uptake

Compound: N[C@H](C(=O)O)c1cc(O)cc(O)c1 [DHPG, (S)-3,5-dihydroxyphenylglycine]
- effect on [Glu]o / glutamate release (hippocampal astrocytes [2]): ineffective

Compound: CCCC(=O)Nc1ncnc2c1ncn2[C@@H]1O[C@@H]2COP(=O)(O)O[C@H]2[C@H]1OC(=O)CCC [Db-cAMP, Dibutylyl-cAMP]
- effect on ACPD effects on [Glu]o (hippocampal astrocytes [2]; [4]): neither blocked nor facilitated the ACPD effects on [Glu]o
- effect on [Glu]o alone (hippocampal astrocytes [2]; up to highest concentration tested, 3 mM): did not significantly change [Glu]o

Compound: CC[C@](N)(CCC(=O)O)C(=O)O [EGLU, (2S)-α-Ethylglutamic acid]
- antagonism of ACPD effects on [Glu]o (hippocampal astrocytes [2]): unable to suppress ACPD effects on [Glu]o
- antagonism of the effect of L-CCG-I on [Glu]o (hippocampal astrocytes [2]): failed to inhibit the effect of other mGluR agonists

Compound: C=C[C@@]1(C)CC(=O)[C@]2(O)[C@@]3(C)[C@@H](O)CCC(C)(C)[C@@H]3[C@H](O)[C@H](OC(C)=O)[C@@]2(C)O1 [Forskolin]
- effect on ACPD effects on [Glu]o (hippocampal astrocytes [2]; [4]): neither blocked nor facilitated the ACPD effects on [Glu]o

Compound: C=C(C)[C@H]1CN[C@H](C(=O)O)[C@H]1CC(=O)O [KA]
- effect on [Glu]o / glutamate release (hippocampal astrocytes [2]): ineffective
- effect on aspartate uptake (hippocampal astrocytes [3]): No significant effects

Compound: N[C@@H](CCCC(=O)O)C(=O)O [L-AA, L-aminoadipic acid]
- effect on [Glu]o when Na+ gradient is disrupted (hippocampal astrocytes [2]): elevated [Glu]o

Compound: N[C@@H](CCP(=O)(O)O)C(=O)O [L-AP4, L(+)-2-amino-4-phosphonobutyric acid]
- effect on [Glu]o / glutamate release (hippocampal astrocytes [2]): ineffective

Compound: N[C@H](C(=O)O)[C@H]1C[C@@H]1C(=O)O [L-CCG-I, (2S,3S,4S)-2-(carboxycyclopropyl) glycine]
- order of potency in mimicking ACPD effect on glutamate release (hippocampal astrocytes [2]): S-4CPG>1S3R-ACPD>L-CCG-I>1S3S-ACPD=QA
- effect on [Glu]o / glutamate release (hippocampal astrocytes [2]): reduce [Glu]o in a dose-dependent manner

Compound: N[C@@H](CS(=O)O)C(=O)O [L-CSA, L-cystein-sulfinic acid]
- effect on [Glu]o / glutamate release (hippocampal astrocytes [2]): ineffective

Compound: C[C@@](N)(C(=O)O)[C@H]1C[C@@H]1C(=O)O [MCCG, (2S,3S,4S)-2-methyl-2-(carboxycyclopropyl)glycine]
- antagonism of ACPD effects on [Glu]o (hippocampal astrocytes [2]): unable to suppress ACPD effects on [Glu]o
- antagonism of the effect of L-CCG-I on [Glu]o (hippocampal astrocytes [2]): failed to inhibit the effect of other mGluR agonists

Compound: C[C@@](N)(C(=O)O)c1ccc(C(=O)O)cc1 [MCPG, (S)-α-methyl-4-carboxyphenylglycine]
- antagonism of ACPD effects on [Glu]o (hippocampal astrocytes [2]): unable to suppress ACPD effects on [Glu]o
- antagonism of the effect of L-CCG-I on [Glu]o (hippocampal astrocytes [2]): failed to inhibit the effect of other mGluR agonists

Compound: C[n+]1ccc(-c2ccccc2)cc1 [MPP^+, 1-methyl-4-phenylpyridinium]
- extracellular glutamate levels elevated to (glial cells): 7 µM
- elevations of extracellular glutamate levels (glial cells): up to 5 fold

Compound: CN1CC=C(c2ccccc2)CC1 [MPTP, 1-methyl-4-phenyl-1-1,2,3,6-tetrahydropyridine]
- neuronal cell death (dopaminergic neurons): wide-spread cell death within less than 24 hours
- ability of glial cells to detoxify glutamate (glial cells): compromised in a dose dependent manner
- extracellular glutamate levels elevated to (glial cells): 7 µM
- elevations of extracellular glutamate levels (glial cells): up to 5 fold

Compound: CN[C@H](CC(=O)O)C(=O)O [NMDA]
- effect on [Glu]o / glutamate release (hippocampal astrocytes [2]): ineffective
- effect on aspartate uptake (hippocampal astrocytes [3]): No significant effects

Compound: C[C@@H]1O[C@@H](O[C@H]2C[C@@H](O)[C@]3(CO)[C@H]4[C@H](O)C[C@]5(C)[C@@H](C6=CC(=O)OC6)CC[C@]5(O)[C@@H]4CC[C@]3(O)C2)[C@H](O)[C@H](O)[C@H]1O [Ouabain]
- effect on [Glu]o when Na+ gradient is disrupted (hippocampal astrocytes [2]): elevated [Glu]o

Compound: N[C@@H](Cn1oc(=O)[nH]c1=O)C(=O)O [QA, Quisqualic acid]
- order of potency in mimicking ACPD effect on glutamate release (hippocampal astrocytes [2]): S-4CPG>1S3R-ACPD>L-CCG-I>1S3S-ACPD=QA
- effect on [Glu]o / glutamate release (hippocampal astrocytes [2]): reduce [Glu]o in a dose-dependent manner

Compound: N[C@H](C(=O)O)c1ccc(C(=O)O)cc1 [S-4CPG, (S)-4-carboxyphenylglycine]
- order of potency in mimicking ACPD effect on glutamate release (hippocampal astrocytes [2]): S-4CPG>1S3R-ACPD>L-CCG-I>1S3S-ACPD=QA
- effect on [Glu]o / glutamate release (hippocampal astrocytes [2]): reduce [Glu]o in a dose-dependent manner

Compound: C[C@@H]1C[C@@H]([C@H](O)CC2CC(=O)NC(=O)C2)C(=O)[C@@H](C)C1 [cycloheximade, cycloheximide]
- effect on ACPD induced attenuation of [Glu]o (hippocampal astrocytes [2]; 2 μg/ml): could not inhibit the ACPD induced attenuation of [Giu]o

Compound: cholera toxin
- effect on ACPD effects on [Glu]o (hippocampal astrocytes [2]): neither inhibited nor mimicked ACPD effects

Compound: pertussis toxin
- inhibition of ACPD modulation of [Glu]o (hippocampal astrocytes [2]; 0.01-500 ng/ml added 6 hours prior to ACPD): failed to inhibit ACPD modulation
- reversal of ACPD modulation of [Glu]o (hippocampal astrocytes [2]; applied after ACPD had been washed off): failed to reverse the modulatory effects of ACPD
